Consider three compounds from patent publication US9682060B2, “Small molecules that induce intrinsic pathway apoptosis” (The Board of Trustees of the University of Illinois, priority 2015, dated 2017).

One assay concerns U-937 cells. Description: Mitochondrial permeability transition pore (MPTP) calcein-cobalt assay. It is filed as cell-based, Human. To be noted: calcein-cobalt quenching. The method, then:
Mitochondrial Permeability Transition Pore (MPTP) Calcein-Cobalt Assay.
U-937 cells (1×10^6 cells/mL in HBSS) were loaded with calcein-AM (20 nM final concentration) for 45 minutes at 37° C. The cells were washed with HBSS and resuspended in RPMI and plated into a 24-well plate (1×10^6 cells in 1 mL). The cells were treated with Raptinal (10 μM) for 15, 30, 45, 60 and 90 minutes. Cobalt(II) chloride was added (10 μL of 80 mM stock in HBSS) to the cells 10 minutes prior to the end of the time points. The cells were pelleted and resuspended in HBSS (0.5 mL) and calcein fluorescence was measured by flow cytometry. As a positive control for MPTP, ionomycin and calcium were added to calcein-labeled cells in HBSS 10 minutes prior to analysis by flow cytometry.

The next assay concerns the target Granzyme B (Homo sapiens, UniProt P10144). To be noted: cited from earlier work.
In the next assay the target is Calpain/Cathepsin. To be noted: cited from earlier work.

Non-standard residues stand in square brackets, D forms with d. Residues, ends and D or L forms follow the SMILES beside them. *: point of attachment. Nle = CCCC[C@H](N)C(=O)O; Cbz = O=C(OCc1ccccc1)*; CH2Cl = ClC*

Chain of Granzyme B (P10144 21-247, species assumed): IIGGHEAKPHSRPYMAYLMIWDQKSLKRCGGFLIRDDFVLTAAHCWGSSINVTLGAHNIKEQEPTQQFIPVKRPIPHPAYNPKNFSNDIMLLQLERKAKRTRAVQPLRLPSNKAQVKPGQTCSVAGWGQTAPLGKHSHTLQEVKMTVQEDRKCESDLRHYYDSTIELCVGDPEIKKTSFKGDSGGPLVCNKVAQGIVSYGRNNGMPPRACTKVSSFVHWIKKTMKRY

Take `C[C@H](CCC(=O)O)C[C@H](C)C[C@H](C)C(=O)/C=C(\O)[C@H](C)C[C@H](C)C/C=C/[C@@H](C)[C@@H](O)[C@@H](C)[C@@H](O)C[C@@H]1CC[C@@](C)([C@H]2CC[C@@](C)([C@@H](C)O)O2)O1` [lonomycin, ionomycin, reference compound]: the “mitochondrial permeability transition pore (MPTP) formation” value in the assay on U-937 cells is given as “able to induce MPTP”. As to `CC(NC(=O)OCc1ccccc1)C(=O)NC(C)C(=O)NC(CC(=O)O)C(=O)CCl` (stereo not drawn) [Granzyme B Inhibitor I] (Cbz-Ala-Ala-Asp-CH2Cl; configuration not given here), the Ki (as a rule, the equilibrium dissociation constant of an inhibitor or competing ligand from its target) on Granzyme B is 300 nM.

For the compound `CCCC[C@@H](C=O)NC(=O)[C@H](CC(C)C)NC(=O)[C@H](CC(C)C)NC(C)=O` [Calpain/Cathepsin Inhibitor I] (Ac-Leu-Leu-[Nle]-aldehyde), the Ki at Calpain/Cathepsin is 120 to 230 nM.
